{"source": "patent US20030235873A1", "about": "“Process for detecting enzyme activity in an immunoassay” (priority 2000, published 2003)", "key": {"[1]": {"test_system": "antibody NEB #9251 (polyclonal anti-active JNK antibody)", "test": "Fluorescence correlation spectroscopy competition of the NEB #9251 antibody-P1°*-TAMRA complex with non-fluorescent peptides", "type": "binding", "settings": "antibody 1:20 diluted, TAMRA-labelled peptide P1*° 5 nM"}, "[2]": {"target": "polyclonal anti active JNK antibody #9251 (New England Biolabs NEB #9251)", "test": "Fluorescence polarization binding of TAMRA-labelled JNK active-site peptides to anti-active JNK antibody", "settings": "peptide at 5 nM", "procedure": "This polyclonal antibody detects all three isoforms of the SAPK1/JNK proteins only when they are activated by dual phosphorylation at threonine183/tyrosinel85. Binding of poly-clonal anti active JNK antibody #9251 (concentration: 0.02 mg/ml, equiv. 130 nM) to TAMRA-labelled P1*° peptide (at 5 nM) was measured at different antibody concentrations by fluorescence polarization. As a control, no binding of the antibody to the monophosphorylated TAMRA-P1° peptide (at 5 nM) is detected.\nThe results of this experiment are illustrated in FIG. 4. […] The polarization values dramatically increase when using the double-phosphorylated TAMRA-P1*° peptide in contrast to mono-phosphorylated labelled TAMRA-P1° peptide (sequences see below)."}, "[3]": {"test_system": "ac(K9)-p(S10)-specific antibody from New England Biolabs (#9711)", "test": "Binding of TAMRA-labelled histone H3 peptides to ac(K9)-p(S10)-specific antibody", "settings": "FIG. 15 and 16", "text": "(§1) The histone deacetylase assay uses fluorescently-labelled peptides (TAMRA dye as a label) derived from histone H3 sequence. In the assay two different polyclonal antibodies are used which bind specifically to acetylated lysine redidues (ac(K) at positions ac(K9) or […]). Acetylation of a single lysine results in a relative small change of the molecular structure of the aminoacid side chain. The resulting change in the binding affinity to acetyl-specific antibodies is in general difficult to detect in a homogeneous binding assay. According to the invention, therefore an additional modification (phosphorylation of serine at position (S10)) was included within the H3-peptide sequence to enhance the affinity of the peptides to the applied antibodies. From the results of three independing binding experiments (FIGS. 15-17) it is evident that dual-modified peptide conjugates confer a higher affinity for the applied antibodies when compared to mono-modified peptide conjugates. This characteristic is of great value to measure the different acetylation states of lysine residues using acetyl-specific antibodies. In principle, the described binding assay can be applied both for the detection of acetyltransferase or deacetylase activity, in particular histone acetyltransferase/deacetylase."}, "[4]": {"target": "T1, PP2A phosphatase (Homo sapiens, UniProt P67775)", "T1 construct": "purchased Upstate Biotech 14-111 (lot no. 20574)", "T1 sequence (P30153 2-589)": "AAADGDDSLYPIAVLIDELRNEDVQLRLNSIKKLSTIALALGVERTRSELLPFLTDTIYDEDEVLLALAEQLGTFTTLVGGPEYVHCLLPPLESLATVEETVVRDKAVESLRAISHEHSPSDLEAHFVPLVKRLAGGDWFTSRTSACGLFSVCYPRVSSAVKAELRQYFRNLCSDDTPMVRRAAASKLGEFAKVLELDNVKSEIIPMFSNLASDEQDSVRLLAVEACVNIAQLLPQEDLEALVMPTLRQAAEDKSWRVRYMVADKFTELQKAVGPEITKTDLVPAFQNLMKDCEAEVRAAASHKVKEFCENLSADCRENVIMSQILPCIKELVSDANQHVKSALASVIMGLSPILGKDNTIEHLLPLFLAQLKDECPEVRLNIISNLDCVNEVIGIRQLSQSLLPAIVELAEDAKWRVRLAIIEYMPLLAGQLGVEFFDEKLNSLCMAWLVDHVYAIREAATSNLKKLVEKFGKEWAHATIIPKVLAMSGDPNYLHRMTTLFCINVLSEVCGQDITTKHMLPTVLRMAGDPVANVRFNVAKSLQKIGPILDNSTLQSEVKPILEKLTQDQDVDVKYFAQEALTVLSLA", "T1 sequence (P67775 whole entry)": "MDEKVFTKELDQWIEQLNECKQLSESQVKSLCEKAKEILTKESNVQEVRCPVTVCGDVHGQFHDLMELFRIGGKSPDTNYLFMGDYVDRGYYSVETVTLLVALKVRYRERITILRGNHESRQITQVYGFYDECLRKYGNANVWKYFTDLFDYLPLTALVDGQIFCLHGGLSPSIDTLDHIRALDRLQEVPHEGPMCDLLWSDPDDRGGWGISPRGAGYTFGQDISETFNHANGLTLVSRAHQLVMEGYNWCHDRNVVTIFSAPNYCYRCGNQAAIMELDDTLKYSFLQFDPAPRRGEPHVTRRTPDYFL", "test": "Direct phosphatase assay: inhibition of PP2A-dependent dephosphorylation of TAMRA-P1°* peptide (fluorescence polarization read-out)", "type": "biochemical"}, "[5]": {"test_system": "p(S10)-ac(K14)-specific antibody from Upstate Biotech (#07-081)", "test": "Binding of TAMRA-labelled histone H3 peptides to p(S10)-ac(K14)-specific antibody", "settings": "FIG. 17", "text": "as §1"}}, "note": "*1 amine or outer side, *2 acyl side, *3 side chain or, on linkers, in order; H or OH if unused. Where a SMILES comes first, the peptide text is derived from it. Bridges are numbered along the chain shown (N, C = ends). Where no end group is shown, it is not given here. [ ]: non-standard residue; d: D form. Adda = CO[C@@H](Cc1ccccc1)[C@@H](C)/C=C(C)/C=C/[C@H](N[*:1])[C@H](C)C(=O)[*:2]; dAsp(3S-Me) = C[C@H](C(=O)[*:3])[C@@H](N[*:1])C(=O)[*:2]; d(γGlu) = O=C(O)[C@@H](CCC(=O)[*:2])N[*:1]; pY = N[C@@H](Cc1ccc(OP(=O)(O)O)cc1)C(=O)O; pT = C[C@@H](OP(=O)(O)O)[C@H](N)C(=O)O; NMeDha = C=C(NC)C(=O)O"}
{"compound": "H-Lys-Phe-Met-Met-pThr-Pro-Tyr-Val-Val-Thr-Arg-NH2 (chain 1 H-KFMM; chain 2 [pT]PYVVTR-NH2; not fully specified (C-terminus); also: chains 1 and 2 are one peptide continuing through pThr) [P1*, monophosphorylated control peptide]", "values": [{"measurement": "Competition with TAMRA-labelled peptide P1*° for binding to the antibody", "setting": "[1]", "value": "did note compete effectively"}]}
{"compound": "5-TAMRA-AEEA-Lys-Phe-Met-Met-pThr-Pro-pTyr-Val-Val-Thr-Arg-NH2 (chain 1 KFMM; chain 2 YVVTR; not fully specified; 5-TAMRA-AEEA, pThr-Pro, phospho, C-terminal amide; printed: Lys-Phe-Met-Met-; printed: Tyr-Val-Val-Thr-Arg-) [P1*°-TAMRA]", "values": [{"measurement": "Kd", "setting": "[2]; different antibody concentrations, read-out: Affinity of polyclonal anti-active-JNK antibody for peptide (KD)", "value": 2.6, "unit": "nM"}]}
{"compound": "TAMRA-A-R-K-p(S10)-T-T-G-K-A [peptide #13]", "values": [{"measurement": "Binding of the ac(K9)-p(S10)-specific antibody to the peptide", "setting": "[3]", "value": "only low binding"}]}
{"compound": "C=C1[C@@H](O)[C@@H]2O[C@]3(CC[C@H](/C=C/[C@@H](C)[C@@H]4CC(C)=C[C@@]5(O[C@H](C[C@@](C)(O)C(=O)O)CC[C@H]5O)O4)O3)CC[C@H]2O[C@@H]1[C@@H](O)C[C@H](C)[C@H]1O[C@@]2(CCCCO2)CC[C@H]1C", "note": "[ocadaic acid]", "values": [{"measurement": "IC50", "setting": "[4]; PP2A 0.003 units, P1°*-TAMRA peptide 10 nM, 30° C., read-out: IC50 (half-maximal inhibitory concentration, PP2A-dependent dephosphorylation of TAMRA-P1°* peptide)", "value": 0.3, "unit": "nM"}]}
{"compound": "C=C1C(=O)N[C@H](C)C(=O)N[C@@H](CC(C)C)C(=O)N[C@@H](C(=O)O)[C@H](C)C(=O)N[C@@H](CCCNC(=N)N)C(=O)N[C@@H](/C=C/C(C)=C/[C@H](C)[C@H](Cc2ccccc2)OC)[C@H](C)C(=O)N[C@@H](C(=O)O)CCC(=O)N1C", "note": "[microcystin-LR] (R[Adda][d(γGlu)][NMeDha][dA]L[dAsp(3S-Me)]-OH; lactam N-7)", "values": [{"measurement": "Inhibition of PP2A", "setting": "[4]", "value": "full inhibition"}]}
{"compound": "TAMRA-A-R-ac(K9)-p(S10)-T-T-G-K-A-P [peptide #10]", "values": [{"measurement": "Binding of the ac(K9)-p(S10)-specific antibody to the peptide", "setting": "[3]", "value": "binding"}, {"measurement": "Binding of the p(S10)-ac(K14)-specific antibody to the peptide", "setting": "[5]", "value": "only low binding"}]}
{"compound": "TAMRA-A-R-ac(K9)-S-T-T-G-K-A [peptide #12]", "values": [{"measurement": "Binding of the ac(K9)-p(S10)-specific antibody to the peptide", "setting": "[3]", "value": "only low binding"}]}
{"compound": "TAMRA-A-R-K-p(S10)-T-T-G-ac(K14)-A-P [peptide #11]", "values": [{"measurement": "Binding of the ac(K9)-p(S10)-specific antibody to the peptide", "setting": "[3]", "value": "only low binding"}, {"measurement": "Binding of the p(S10)-ac(K14)-specific antibody to the peptide", "setting": "[5]", "value": "binding"}]}
{"compound": "H-Lys-Phe-Met-Met-Thr-Pro-pTyr-Val-Val-Thr-Arg-NH2 (chain 1 H-KFMMTP; chain 2 [pY]VVTR-NH2; not fully specified (C-terminus); also: chains 1 and 2 are one peptide continuing through pTyr) [P1°, monophosphorylated control peptide]", "values": [{"measurement": "Competition with TAMRA-labelled peptide P1*° for binding to the antibody", "setting": "[1]", "value": "did note compete effectively"}]}
{"compound": "5-TAMRA-AEEA-Lys-Phe-Met-Met-Thr-Pro-pTyr-Val-Val-Thr-Arg-NH2 (chain 1 KFMMTP; chain 2 YVVTR; not fully specified; 5-TAMRA-AEEA, phospho residue, C-terminal amide; printed: Lys-Phe-Met-Met-Thr-Pro-; printed: Tyr-Val-Val-Thr-Arg-) [TAMRA-P1°]", "values": [{"measurement": "Binding of the antibody to the peptide", "setting": "[2]; control", "value": "no binding"}]}
{"compound": "H-KFMM[pT]P[pY]VVTR-NH2 [P1*°]", "values": [{"measurement": "Competition with TAMRA-labelled peptide P1*° for binding to the antibody", "setting": "[1]", "value": "able to compete effectively"}, {"measurement": "IC50", "setting": "[1]; read-out: IC50 (competition of antibody binding to TAMRA-labelled peptide P1*°)", "value": 5, "unit": "nM"}]}
